Test results reported in US11352340B2, “Pyridine and pyridimine compounds as PI3K-gamma inhibitors” (Incyte Corporation, priority 2016, dated 2022).
Structures can show the parent of a compound that is named as a salt.

Key:
[1] = target: PI3Kγ (p110γ) Recombinant Human Protein (Homo sapiens (Human), UniProt P48736); test: PI3K-γ Scintillation Proximity Assay; type: biochemical; conditions: read-out: PI3K-gamma SPA IC50
Method in brief: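 Radiometric SPA: reaction at room temperature for 120 min using 2 μM ATP with [γ-33P]ATP tracer, 20 μM PIP2 substrate and 13 nM human PI3Kγ (MOPS pH 6.7, MgCl2, DTT, CHAPS; 2% DMSO). EDTA quench with WGA beads, scintillation count, and IC50 fit of percent-of-control activity.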

[2] = target: PI3Kδ (p110δ/p85α) Recombinant Human Protein (Homo sapiens (Human), UniProt O00329); test: PI3Kδ Scintillation Proximity Assay; type: biochemical; conditions: read-out: PI3K-delta SPA IC50
Chain of PI3Kδ (p110δ/p85α) Recombinant Human Protein (O00329 whole entry): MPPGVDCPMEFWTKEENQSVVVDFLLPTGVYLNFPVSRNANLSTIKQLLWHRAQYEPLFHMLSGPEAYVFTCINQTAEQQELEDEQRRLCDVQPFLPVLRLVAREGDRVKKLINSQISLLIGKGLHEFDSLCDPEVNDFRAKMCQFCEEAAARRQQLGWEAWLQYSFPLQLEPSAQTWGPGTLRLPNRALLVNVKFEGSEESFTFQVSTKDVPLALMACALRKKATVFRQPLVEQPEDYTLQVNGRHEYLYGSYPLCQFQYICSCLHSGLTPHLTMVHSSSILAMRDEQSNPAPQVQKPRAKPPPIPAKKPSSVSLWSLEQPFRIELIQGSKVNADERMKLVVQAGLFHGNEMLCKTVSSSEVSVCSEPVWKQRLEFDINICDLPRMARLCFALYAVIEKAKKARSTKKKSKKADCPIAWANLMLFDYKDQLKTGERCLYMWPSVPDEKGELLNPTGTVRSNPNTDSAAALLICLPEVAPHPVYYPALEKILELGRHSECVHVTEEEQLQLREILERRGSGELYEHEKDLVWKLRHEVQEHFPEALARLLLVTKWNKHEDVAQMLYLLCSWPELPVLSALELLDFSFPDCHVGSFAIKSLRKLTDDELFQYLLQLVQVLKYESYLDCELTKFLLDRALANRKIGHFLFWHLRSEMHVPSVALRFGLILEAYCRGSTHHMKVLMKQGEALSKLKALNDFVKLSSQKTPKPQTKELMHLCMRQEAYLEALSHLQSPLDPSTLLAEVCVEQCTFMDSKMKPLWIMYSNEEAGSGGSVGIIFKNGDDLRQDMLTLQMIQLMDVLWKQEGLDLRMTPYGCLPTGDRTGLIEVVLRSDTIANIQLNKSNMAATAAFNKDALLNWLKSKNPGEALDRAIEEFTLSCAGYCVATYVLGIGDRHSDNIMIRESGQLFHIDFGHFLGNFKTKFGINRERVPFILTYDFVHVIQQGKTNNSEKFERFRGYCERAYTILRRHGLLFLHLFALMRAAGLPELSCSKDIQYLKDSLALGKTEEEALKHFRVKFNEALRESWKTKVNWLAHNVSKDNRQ
Chain of PI3Kδ (p110δ/p85α) Recombinant Human Protein (P27986 whole entry partner): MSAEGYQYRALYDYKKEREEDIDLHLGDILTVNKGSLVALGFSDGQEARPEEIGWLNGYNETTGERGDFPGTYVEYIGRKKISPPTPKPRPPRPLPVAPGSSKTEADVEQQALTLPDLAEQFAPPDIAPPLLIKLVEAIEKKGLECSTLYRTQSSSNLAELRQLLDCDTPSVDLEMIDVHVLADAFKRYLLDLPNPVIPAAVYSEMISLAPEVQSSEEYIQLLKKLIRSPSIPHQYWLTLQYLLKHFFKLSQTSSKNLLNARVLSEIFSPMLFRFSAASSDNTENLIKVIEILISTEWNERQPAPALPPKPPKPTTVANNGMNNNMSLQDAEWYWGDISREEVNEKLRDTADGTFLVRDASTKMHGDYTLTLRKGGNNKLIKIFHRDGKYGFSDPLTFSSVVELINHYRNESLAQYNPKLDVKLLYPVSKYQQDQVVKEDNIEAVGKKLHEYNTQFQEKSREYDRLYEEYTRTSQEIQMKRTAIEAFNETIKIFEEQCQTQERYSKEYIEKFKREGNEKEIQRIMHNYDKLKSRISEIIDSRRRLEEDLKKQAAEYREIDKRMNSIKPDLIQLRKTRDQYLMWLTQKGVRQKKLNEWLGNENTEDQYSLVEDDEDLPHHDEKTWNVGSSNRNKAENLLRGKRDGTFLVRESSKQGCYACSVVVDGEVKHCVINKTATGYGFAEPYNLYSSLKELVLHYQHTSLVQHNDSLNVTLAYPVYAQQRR
Method in brief: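 Radiometric read-out: 33P-labelled PIP3 product captured on WGA SPA beads and counted, with IC50 fitted from percent activity relative to DMSO control. Enzyme (3.4 nM) was incubated 120 min at room temperature with 20 μM PIP2 and 2 μM ATP at pH 6.7, 2% DMSO.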

Chain of PI3Kγ (p110γ) Recombinant Human Protein (P48736 whole entry): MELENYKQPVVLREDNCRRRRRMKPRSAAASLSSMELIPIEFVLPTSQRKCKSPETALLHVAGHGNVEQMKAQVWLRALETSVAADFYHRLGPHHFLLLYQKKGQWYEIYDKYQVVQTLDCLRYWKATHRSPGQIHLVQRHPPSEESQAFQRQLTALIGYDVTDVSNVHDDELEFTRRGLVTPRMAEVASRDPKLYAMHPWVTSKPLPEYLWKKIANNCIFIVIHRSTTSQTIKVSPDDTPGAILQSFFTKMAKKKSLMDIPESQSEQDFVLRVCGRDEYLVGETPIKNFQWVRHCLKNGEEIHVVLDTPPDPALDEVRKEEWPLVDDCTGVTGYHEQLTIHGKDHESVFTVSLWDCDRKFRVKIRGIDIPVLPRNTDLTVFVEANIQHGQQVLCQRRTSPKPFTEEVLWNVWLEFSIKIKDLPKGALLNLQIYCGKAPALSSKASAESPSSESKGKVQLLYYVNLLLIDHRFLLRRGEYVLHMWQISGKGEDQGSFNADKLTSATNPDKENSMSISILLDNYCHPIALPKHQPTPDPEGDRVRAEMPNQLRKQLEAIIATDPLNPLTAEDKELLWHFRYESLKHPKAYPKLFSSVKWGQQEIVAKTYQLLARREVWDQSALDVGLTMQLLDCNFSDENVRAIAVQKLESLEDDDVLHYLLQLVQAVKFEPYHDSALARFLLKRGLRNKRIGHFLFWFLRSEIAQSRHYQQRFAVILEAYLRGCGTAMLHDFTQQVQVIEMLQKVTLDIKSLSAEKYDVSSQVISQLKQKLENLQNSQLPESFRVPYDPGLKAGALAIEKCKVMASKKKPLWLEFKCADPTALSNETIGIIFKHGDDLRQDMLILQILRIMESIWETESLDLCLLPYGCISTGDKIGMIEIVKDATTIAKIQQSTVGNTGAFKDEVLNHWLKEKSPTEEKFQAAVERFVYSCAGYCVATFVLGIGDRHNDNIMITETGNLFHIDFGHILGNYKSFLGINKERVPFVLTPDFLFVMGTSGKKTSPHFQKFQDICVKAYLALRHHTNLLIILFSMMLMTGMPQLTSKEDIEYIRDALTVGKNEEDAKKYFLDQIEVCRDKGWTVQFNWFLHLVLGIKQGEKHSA

IC50 [1] [nM]	IC50 [2] [nM]	Compound
> 500	> 500	O=C(Nc1cncc(-c2ccnc(-c3ncc(-c4ccccc4)[nH]3)c2)c1)c1cccc(Cl)c1 [Example 134, 3-Chloro-N-(2′-(5-phenyl-1H-imidazol-2-yl)-3,4′-bipyridin-5-yl)benzamide]
> 500	> 500	CNC(=O)CCn1cc(-c2ccnc(-c3ncc(-c4ccccc4)[nH]3)c2)cn1 [Example 58, N-Methyl-3-(4-(2-(5-phenyl-1H-imidazol-2-yl)pyridin-4-yl)-1H-pyrazol-1-yl)propanamide trifluoroacetate salt]
≤ 100	≤ 100	CN1CCC(Nc2cncc(-c3ccnc(-c4ncc(-c5ccccc5)[nH]4)c3)c2)CC1 [Example 143, N-(1-Methylpiperidin-4-yl)-2′-(5-phenyl-1H-imidazol-2-yl)-3,4′-bipyridin-5-amine trifluoroacetate salt]
> 500	≤ 500	O=C(Nc1cncc(-c2ccnc(-c3ncc(-c4ccccc4)[nH]3)c2)c1)c1ccc(Cl)cc1 [Example 135, 4-Chloro-N-(2′-(5-phenyl-1H-imidazol-2-yl)-3,4′-bipyridin-5-yl)benzamide]
≤ 500	≤ 100	CCNC(=O)Nc1cncc(-c2ccnc(-c3ncc(-c4ccccc4)[nH]3)c2)c1 [Example 139, N-Ethyl-N′-[2′-(5-phenyl-1H-imidazol-2-yl)-3,4′-bipyridin-5-yl]urea Trifluoroacetate Salt]
≤ 100	≤ 100	CN1CCC(CNc2cncc(-c3ccnc(-c4ncc(-c5ccccc5)[nH]4)c3)c2)CC1 [Example 144, N-((1-Methylpiperidin-4-yl)methyl)-2′-(5-phenyl-1H-imidazol-2-yl)-3,4′-bipyridin-5-amine trifluoroacetate salt]
≤ 100	≤ 50	CCOC(=O)Nc1cncc(-c2ccnc(-c3ncc(-c4ccccc4)[nH]3)c2)c1 [Example 140, Ethyl 2′-(5-phenyl-1H-imidazol-2-yl)-3,4′-bipyridin-5-ylcarbamate Trifluoroacetate Salt]
> 500	> 500	CN1CCN(c2cncc(-c3ccnc(-c4ncc(-c5ccccc5)[nH]4)c3)c2)CC1 [Example 37, 5-(4-Methylpiperazin-1-yl)-2′-(5-phenyl-1H-imidazol-2-yl)-3,4′-bipyridin trifluoroacetate salt]
≤ 500	≤ 100	O=C(Nc1cncc(-c2ccnc(-c3ncc(-c4ccccc4)[nH]3)c2)c1)c1ccccc1Cl [Example 133, 2-Chloro-N-(2′-(5-phenyl-1H-imidazol-2-yl)-3,4′-bipyridin-5-yl)benzamide]
≤ 500	≤ 500	c1ccc(-c2cnc(-c3cc(-c4cnn(C5CCOC5)c4)ccn3)[nH]2)cc1 (racemic) [Example 60, 2-(5-Phenyl-1H-imidazol-2-yl)-4-(1-(tetrahydrofuran-3-yl)-1H-pyrazol-4-yl)pyridine trifluoroacetate salt]

More lines, now with the values behind:

Compound	IC50 [1] [nM]	IC50 [2] [nM]
CNCc1nc(-c2cc(-c3cncc(N4CCOCC4)c3)ccn2)[nH]c1C [Example 288, N-Methyl-1-[5-methyl-2-(5-morpholin-4-yl-3,4′-bipyridin-2′-yl)-1H-imidazol-4-yl]methanamine]	> 500	≤ 500
Cc1nc(-c2cc(-c3cncc(C(=O)N4CCCC(c5ccccc5)C4)c3)ccn2)[nH]c1C (racemic) [Example 188, 2′-(4,5-Dimethyl-1H-imidazol-2-yl)-5-[(3-phenylpiperidin-1-yl)carbonyl]-3,4′-bipyridine trifluoroacetate salt]	≤ 500	≤ 500
Cc1nc(-c2cc(-c3cncc(C(=O)N4CCC(c5ccncc5)C4)c3)ccn2)[nH]c1C (racemic) [Example 182, 2′-(4,5-Dimethyl-1H-imidazol-2-yl)-5-[(3-pyridin-4-ylpyrrolidin-1-yl)carbonyl]-3,4′-bipyridine]	≤ 500	≤ 500
Cc1nc(-c2cc(-c3cncc(C(=O)N[C@@H](C)c4ccccc4)c3)ccn2)[nH]c1C [Example 195, 2′-(4,5-Dimethyl-1H-imidazol-2-yl)-N-[(1S)-1-phenylethyl]-3,4′-bipyridine-5-carboxamide trifluoroacetate salt]	≤ 500	≤ 500
Cc1nc(-c2cc(-c3cncc(Cl)c3)ccn2)[nH]c1C [Example 234, 5-Chloro-2′-(4,5-dimethyl-1H-imidazol-2-yl)-3,4′-bipyridine]	≤ 100	≤ 100
Cc1nc(-c2cc(-c3cncc(C(=O)N4CCC(Cc5ccccc5)CC4)c3)ccn2)[nH]c1C [Example 189, 5-[(4-Benzylpiperidin-1-yl)carbonyl]-2′-(4,5-dimethyl-1H-imidazol-2-yl)-3,4′-bipyridine trifluoroacetate salt]	≤ 100	≤ 50
4-(1-Methyl-3-(trifluoromethyl)-1H-pyrazol-5-yl)-2-(5-phenyl-1H-imidazol-2-yl)pyridine trifluoroacetate salt [Example 13]	> 500	> 500
Cc1nc(-c2cc(-c3cncc(C4=CCNC4)c3)ccn2)[nH]c1C [Example 236, 5-(2,5-Dihydro-1H-pyrrol-3-yl)-2′-(4,5-dimethyl-1H-imidazol-2-yl)-3,4′-bipyridine]	> 500	> 500
Cc1nc(-c2cc(-c3cncc(C(=O)N4CCCN(C)CC4)c3)ccn2)[nH]c1C [Example 200, 2′-(4,5-Dimethyl-1H-imidazol-2-yl)-5-[(4-methyl-1,4-diazepan-1-yl)carbonyl]-3,4′-bipyridine]	≤ 500	≤ 500
Cc1nc(-c2cc(-c3cncc(C(=O)N4CC5(CCN(C)C5=O)C4)c3)ccn2)[nH]c1C [Example 171, 2-(2′-(4,5-Dimethyl-1H-imidazol-2-yl)-3,4′-bipyridine-5-carbonyl)-6-methyl-2,6-diazaspiro[3.4]octan-5-one trifluoroacetate salt]	≤ 100	≤ 100
COC(=O)c1ccccc1Cn1cc(-c2ccnc(-c3ncc(-c4ccccc4)[nH]3)c2)cn1 [Example 30, Methyl 2-((4-(2-(5-phenyl-1H-imidazol-2-yl)pyridin-4-yl)-1H-pyrazol-1-yl)methyl)benzoate trifluoroacetate salt]	> 500	> 500
Cc1[nH]c(-c2cc(-c3cncc(N4CCOCC4)c3)ccn2)nc1C(=O)N[C@@H]1CCN(Cc2ccccc2)C1 [Example 280, N-[(3R)-1-Benzylpyrrolidin-3-yl]-5-methyl-2-(5-morpholin-4-yl-3,4′-bipyridin-2′-yl)-1H-imidazole-4-carboxamide trifluoroacetate salt]	≤ 500	≤ 50
CN(C)C(=O)Cn1cc(-c2ccnc(-c3ncc(-c4ccccc4)[nH]3)c2)cn1 [Example 49, N,N-Dimethyl-2-(4-(2-(5-phenyl-1H-imidazol-2-yl)pyridin-4-yl)-1H-pyrazol-1-yl)acetamide trifluoroacetate salt]	> 500	> 500
Cc1nc(-c2cc(C3=CCCN(Cc4ccccc4)C3)ccn2)[nH]c1C [Example 223, 4-(1-Benzyl-1,2,5,6-tetrahydropyridin-3-yl)-2-(4,5-dimethyl-1H-imidazol-2-yl)pyridine trifluoroacetate salt]	> 500	> 500
Cc1nc(-c2cc(-c3cncc(C(=O)N4CCC(c5ccccc5)C4)c3)ccn2)[nH]c1C (racemic) [Example 181, 2′-(4,5-Dimethyl-1H-imidazol-2-yl)-5-[(3-phenylpyrrolidin-1-yl)carbonyl]-3,4′-bipyridine trifluoroacetate salt]	≤ 100	≤ 50
CCc1cnc(-c2cc(-c3cncc(N4CCOCC4)c3)ccn2)[nH]1 [Example 100, 4-(2′-(5-Ethyl-1H-imidazol-2-yl)-3,4′-bipyridin-5-yl)morpholine trifluoroacetate salt]	≤ 500	≤ 500
Cc1nc(-c2cc(C3=CCCN(CC4CCOCC4)C3)ccn2)[nH]c1C [Example 225, 2-(4,5-Dimethyl-1H-imidazol-2-yl)-4-(1-((tetrahydro-2H-pyran-4-yl)methyl)-1,2,5,6-tetrahydropyridin-3-yl)pyridine trifluoroacetate salt]	> 500	> 500
CCOC(=O)CCn1cc(-c2ccnc(-c3ncc(-c4ccccc4)[nH]3)c2)cn1 [Example 55, Ethyl 3-(4-(2-(5-phenyl-1H-imidazol-2-yl)pyridin-4-yl)-1H-pyrazol-1-yl)propanoate trifluoroacetate salt]	≤ 500	≤ 500
Cc1[nH]c(-c2cc(-c3cncc(N4CCOCC4)c3)ccn2)nc1CNC(C)C [Example 285, N-{[5-Methyl-2-(5-morpholin-4-yl-3,4′-bipyridin-2′-yl)-1H-imidazol-4-yl]methyl}propan-2-amine]	> 500	≤ 500
COc1cncc(-c2ccnc(-c3cnc(N)[nH]3)c2)c1 [Example 61, 5-(5-Methoxy-3,4′-bipyridin-2′-yl)-1H-imidazol-2-amine]	> 500	> 500
Cc1nc(-c2cc(-c3cncc(C(=O)NCCCN(C)C)c3)ccn2)[nH]c1C [Example 149, 2′-(4,5-Dimethyl-1H-imidazol-2-yl)-N-(3-(dimethylamino)propyl)-3,4′-bipyridine-5-carboxamide]	≤ 100	> 500
